# Measurements: patent US12324927B2, “Methods and systems for photodynamic therapy calculations” (THE TRUSTEES OF THE UNIVERSITY OF PENNSYLVANIA, priority 2018, dated 2025)
# Tests used:
# [1] = test system: radiation induced fibrosarcoma (RIF) tumors; experiment: BPD-mediated vascular PDT of RIF tumors: explicit dosimetry and tumor regrowth (cure index); type: in vivo, mice
# Experimental: RIF cells were cultured and 30 μl were injected at 1×10^7 cells/ml intradermally over the right shoulders of 6 to 8 weeks old female C3H mice (NCI-Frederick, Frederick, Maryland), as described previously^10-12. Animals were under the care of the University of Pennsylvania Laboratory Animal Resources. All studies were approved by the University of Pennsylvania Institutional Animal Care and Use Committee. Tumors were treated at a size of ˜3 to 5 mm in diameter. Fur within the region of tumor inoculation was clipped prior to injection of cells, and the treatment area was depilated with Nair (Church & Dwight Co., Inc., Ewing, New Jersey) at least 24 h before measurements. Mice were provided a chlorophyll-free (alfalfa-free) rodent diet (Harlan Laboratories Inc., Indianapolis, Indiana) starting at least 10 days prior to treatment to eliminate the fluorescence signal from chlorophyll-breakdown products, which have a similar emission range to the BPD fluorescence spectra used to determine the concentration of BPD in the tumor. During the delivery of PDT, mice were kept under anesthesia on a heat pad at 38° C.
# PDT was delivered using an optical fiber with a microlens attachment coupled to a diode laser. A 690 nm laser (B&W Tek Inc., Newark, Delaware) was used for PDT after a 15 min drug-light interval. The in-air fluence rate (ϕair) is defined as the calculated irradiance determined by the laser power divided by the treatment area (1 cm diameter spot size). The in-air fluence was calculated by multiplying the in-air fluence rate by the treatment time. […]
# The in vivo tissue oxygen partial pressure pO2 was measured during PDT treatment using a phosphorescence-based […] (OxyLite Pro, Oxford Optronix, Oxford, United Kingdom). […] The ROS concentration ([ROS]) was calculated by multiplying the measured pO2 with the […] solubility in tissue, which is 1.295 μM/mmHg.^5 Measured [ROS]0 and [ROS](t) were used to calculate reacted oxygen species using the macroscopic singlet oxygen model.^14,15 […]
# Tumor volumes were measured daily after PDT. […]
# [2] = as printed in b218; cited from earlier work
smiles,measurement,setting,value
"C=Cc1c(C)c2cc3nc(cc4[nH]c(cc5nc(cc1[nH]2)C(C)=C5CCC(=O)O)c(CCC(=O)OC)c4C)[C@@]1(C)C3=CC=C(C(=O)OC)[C@H]1C(=O)OC [BPD, benzoporphyrin derivative monoacid ring A]",change of BPD concentration before vs after PDT treatment,"[1]; in tumor, FIG. 18",not significant changes
same,[ROS]rx threshold dose smaller than value for conventional BPD-mediated PDT using DLI of 3 hrs,"[1]; mouse, in vivo",about 4.3 times
same,threshold dose for [ROS]rx,"[1]; vascular BPD-PDT, DLI 15 min",0.23 mM
same,β,[2],11.9 µM
